{"source": "ChEMBL document CHEMBL2021786", "about": "“The discovery of 2-fluoro-N-(3-fluoro-4-(5-((4-morpholinobutyl)amino)-1,3,4-oxadiazol-2-yl)phenyl)benzamide, a full agonist of the alpha-7 nicotinic acetylcholine receptor showing efficacy in the novel object recognition model of cognition enhancement” (Bioorg Med Chem Lett, 2012)", "key": {"[1]": {"test_system": "MDR1", "experiment": "Intrinsic permeability of the compound in MDCK cells expressing MDR1", "type": "ADME, cell-based, Canis lupus familiaris", "conditions": "dog"}, "[2]": {"experiment": "Tmax in po dosed rat", "type": "ADME, organism-based", "conditions": "in vivo"}, "[3]": {"test_system": "Liver", "experiment": "Clearance in rat liver assessed per gram of tissue", "type": "ADME, tissue-based", "conditions": "in vivo"}, "[4]": {"test_system": "Liver", "experiment": "Clearance in human liver assessed per gram of tissue", "type": "ADME, tissue-based"}, "[5]": {"experiment": "Blood clearance in Sprague-Dawley rat at 1 mg/kg, iv", "type": "ADME, organism-based", "design": "dose 1 mg/kg, route intravenous"}, "[6]": {"experiment": "Half life in Sprague-Dawley rat at 1 mg/kg, iv", "type": "ADME, organism-based", "design": "dose 1 mg/kg, route intravenous", "conditions": "in vivo"}, "[7]": {"experiment": "Tmax in Sprague-Dawley rat at 3 mg/kg, po", "type": "ADME, organism-based", "design": "dose 3 mg/kg, route oral", "conditions": "in vivo"}, "[8]": {"experiment": "Oral bioavailability in Sprague-Dawley rat at 3 mg/kg", "type": "ADME, organism-based", "conditions": "in vivo"}, "[9]": {"experiment": "Ratio of drug level in brain to blood in CD1 mouse at 5 mg/kg, po after 3 hrs", "type": "ADME, organism-based", "design": "dose 5 mg/kg, route oral"}, "[10]": {"experiment": "Ratio of drug level in brain to blood in Lister Hooded rat at 3 mg/kg, po after 3 hrs", "type": "ADME, organism-based", "design": "dose 3 mg/kg, route oral"}, "[11]": {"test_system": "Blood", "experiment": "Drug level in novel object recognition model of rat blood at 0.1 mg/kg, po", "type": "ADME, organism-based", "design": "dose 0.1 mg/kg, route oral", "conditions": "in vivo, read-out: Drug uptake"}}, "data": [{"smiles": "O=C(Nc1ccc(-c2nnc(NCCCN3CCN4CCC3CC4)o2)cc1)c1ccccc1F", "values": [{"measurement": "Papp", "setting": "[1]", "result": 4.2, "unit": "×10⁻⁶ cm/s"}]}, {"smiles": "COc1cc(NC(=O)c2ccccc2F)ccc1-c1nnc(NCCCN2CCCCC2)o1", "values": [{"measurement": "Tmax", "setting": "[2]", "result": 3, "unit": "h"}]}, {"smiles": "O=C(Nc1ccc(-c2nnc(NCCCCN3CCOCC3)o2)cc1)c1ccccc1F", "values": [{"measurement": "Papp", "setting": "[1]", "result": 75.6, "unit": "×10⁻⁶ cm/s"}, {"measurement": "CLH", "setting": "[3]", "result": 0.8, "unit": "mL/min/g"}, {"measurement": "CLH", "setting": "[4]", "result": "< 0.5", "unit": "mL/min/g"}, {"measurement": "clearance", "setting": "[5]", "result": 37, "unit": "mL/min/kg"}, {"measurement": "half-life", "setting": "[6]", "result": 1.6, "unit": "h"}, {"measurement": "Tmax", "setting": "[7]", "result": 1, "unit": "h"}, {"measurement": "bioavailability", "setting": "[8]", "result": 22, "unit": "%"}, {"measurement": "Kp at 3 h", "setting": "[9]", "result": 0.62}]}, {"smiles": "O=C(Nc1ccc(-c2nnc(NCCCCN3CCCCC3)o2)cc1)c1ccccc1F", "values": [{"measurement": "Papp", "setting": "[1]", "result": 127, "unit": "×10⁻⁶ cm/s"}, {"measurement": "CLH", "setting": "[3]", "result": "< 0.5", "unit": "mL/min/g"}, {"measurement": "CLH", "setting": "[4]", "result": 0.5, "unit": "mL/min/g"}, {"measurement": "clearance", "setting": "[5]", "result": 42, "unit": "mL/min/kg"}, {"measurement": "half-life", "setting": "[6]", "result": 2.7, "unit": "h"}, {"measurement": "Kp at 3 h", "setting": "[10]", "result": 0.99}]}, {"smiles": "O=C(Nc1ccc(-c2nnc(NCCCCN3CCCCC3)o2)cc1)c1ccccc1", "values": [{"measurement": "Papp", "setting": "[1]", "result": 33.7, "unit": "×10⁻⁶ cm/s"}]}, {"smiles": "O=C(Nc1ccc(-c2nnc(NCCCCN3CCCCC3)o2)cc1)C1CCCCC1", "values": [{"measurement": "Papp", "setting": "[1]", "result": 9.8, "unit": "×10⁻⁶ cm/s"}]}, {"smiles": "COc1cc(NC(=O)c2ccccc2F)ccc1-c1nnc(NCCCCN2CCCCC2)o1", "values": [{"measurement": "Papp", "setting": "[1]", "result": 25.1, "unit": "×10⁻⁶ cm/s"}]}, {"smiles": "COc1cc(NC(=O)c2ccccc2F)ccc1-c1nnc(NCCCCN2CCOCC2)o1", "values": [{"measurement": "Papp", "setting": "[1]", "result": 57.3, "unit": "×10⁻⁶ cm/s"}]}, {"smiles": "O=C(Nc1ccc(-c2nnc(NCCCCN3CCOCC3)o2)c(F)c1)c1ccccc1F", "values": [{"measurement": "Papp", "setting": "[1]", "result": 73.6, "unit": "×10⁻⁶ cm/s"}, {"measurement": "CLH", "setting": "[3]", "result": "< 0.5", "unit": "mL/min/g"}, {"measurement": "CLH", "setting": "[4]", "result": "< 0.5", "unit": "mL/min/g"}, {"measurement": "clearance", "setting": "[5]", "result": 54, "unit": "mL/min/kg"}, {"measurement": "Tmax", "setting": "[7]", "result": 1, "unit": "h"}, {"measurement": "bioavailability", "setting": "[8]", "result": 20, "unit": "%"}, {"measurement": "Kp at 3 h", "setting": "[9]", "result": 0.53}, {"measurement": "concentration", "setting": "[11]", "result": 10.5, "unit": "nM"}]}, {"smiles": "O=C(Nc1ccc(-c2nnc(NCCCCN3CCOCC3)o2)c(F)c1)c1ccccc1", "values": [{"measurement": "Papp", "setting": "[1]", "result": 28.5, "unit": "×10⁻⁶ cm/s"}]}, {"smiles": "O=C(Nc1ccc(-c2nnc(NCCCCN3CCC(F)CC3)o2)cc1)c1ccccc1F", "values": [{"measurement": "Papp", "setting": "[1]", "result": 70.3, "unit": "×10⁻⁶ cm/s"}]}]}
